≈ marks a conversion by molar mass, not a printed value. Where a SMILES comes first, the peptide text is derived from it. [ ]: non-standard residue; d: D form.
Columns and labels:
[1] = system: M. abscessus; test: MIC against MDR M. abscessus isolates; format: cell-based, Mycobacterium abscessus; conditions: 7 days; for MIC: AST media (CAAT)
[2] = system: A. ruhlandii; test: MIC by broth microdilution against A. ruhlandii; format: cell-based, Achromobacter ruhlandii; conditions: A. ruhlandii isolates
Procedure: (§1) MIC values were determined using a modification of the standard broth microdilution reference method defined by the Clinical and Laboratory Standards Institute (CLSI), CLSL. 2015. Methods for Dilution Antimicrobial Susceptibility Tests for Bacteria That Grow Aerobically; Approved Standard-10th Edition. Clinical and Laboratory Standards Institute, Wayne, PA. The modification was based on the replacement of Mueller Hinton Broth with either CAA media (with and without NaCl) or CAA supplemented with 2.5% human serum. MIC is the minimum concentration of peptide sufficient to suppress at least 80% of the bacterial growth compared to control.
Based on these nine most prevalent strains, direct lytic agents, including GN370, AM1, AM2, and AM3, were evaluated against various isolates from each of the 9 strains. MICs and MBECs (Example 3) were determined, and a sputum inhibition test was conducted, as described below in Example 5.
(§2) The MICs for were determined as described below using the broth microdilution method for meropenem, GN370, AM1, AM2, and AM3. The results are shown below in Tables 8-12.

[3] = system: Mycobacterium species; format: cell-based
[4] = system: A. xylosoxidans; format: cell-based, Achromobacter xylosoxidans; conditions: for MIC50 / MIC90: A. xylosoxidans isolates; for MIC: A. xylosoxidans test organism of the sputum time-kill assay
Procedure: as §1, §2
The activity of GN370 and AM1 was evaluated against various bacterial isolates, including mucoid and α-hemolytic isolates of P. aeruginosa, MDR isolates, and carbapenem-resistant isolates.

[5] = system: A. dolens; format: cell-based, Achromobacter dolens
Procedure: (§3) The MBEC (after 2-hour treatments) was determined as described in Jones and Wozniak, PsI Produced by Mucoid Pseudomonas aeruginosa Contributes to the Establishment of Biofilms and Immune Evasion, Am. Soc. Microbiol. 2017, 8(3):e00864-17. Meropenem and tobramycin were included as controls and were both poorly active, with MBEC90 values of >256 μg/mL (data not shown).

[6] = system: P. apista; format: cell-based, Pandoraea apista
Procedure: as §3

[7] = system: P. aeruginosa; test: Checkerboard synergy assay (FICI) with antibiotics against P. aeruginosa; format: cell-based, Pseudomonas aeruginosa; conditions: for MIC (dual agent): GN370 + meropenem
How it was run: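 Checkerboard of 2-fold antibiotic dilutions crossed with GN370 (lysin peptide), bacteria at 1×10^5 CFU/ml in CAA, with or without human serum or pulmonary surfactant. ΣFICmin taken as FICI: ≤0.5 synergy, >0.5–≤1 additive, >1 indifferent.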

[8] = P. aeruginosa (ATCC 27853, CFS 1766)

With CC[C@H](C)[C@H](NC(=O)[C@@H](CCCNC(=N)N)NC(=O)[C@H](Cc1ccccc1)NC(=O)CNC(=O)CNC(=O)[C@@H](CCCNC(=N)N)NC(=O)[C@H](CCSC)NC(=O)[C@@H]1CCCN1C(=O)[C@@H](CCCNC(=N)N)NC(=O)[C@H](C)NC(=O)[C@@H](CCCNC(=N)N)NC(=O)[C@H](CC(C)C)NC(=O)[C@H](CC(N)=O)NC(=O)[C@@H](CCCNC(=N)N)NC(=O)[C@@H](CCCCN)NC(=O)[C@@H](CCCCN)NC(=O)[C@@H](NC(=O)[C@H](CC(N)=O)NC(=O)[C@@H](NC(=O)[C@H](C)NC(=O)CNC(=O)[C@@H](CCCNC(=N)N)NC(=O)[C@@H](NC(=O)[C@H](Cc1ccccc1)NC(=O)[C@@H](NC(=O)[C@@H](CCCCN)NC(=O)[C@@H](CCCNC(=N)N)NC(=O)[C@H](CO)NC(=O)[C@@H](CCCCN)NC(=O)[C@@H](CCCCN)NC(=O)[C@@H](CCCCN)NC(=O)[C@H](CO)NC(=O)[C@H](CC(C)C)NC(=O)[C@@H](CCCCN)NC(=O)[C@@H](CCCNC(=N)N)NC(=O)[C@@H](CCCNC(=N)N)NC(=O)[C@@H](CCCCN)NC(=O)[C@@H](N)CCSC)[C@@H](C)CC)[C@@H](C)O)C(C)C)C(C)C)C(=O)O [AM3] (H-M[dK][dR][dR][dK]LS[dK][dK][dK]S[dR][dK]IFT[dR]GAVNV[dK][dK][dR]NL[dR]A[dR]PM[dR]GGF[dR]I-OH; N-terminus and C-terminus assumed) the “activity (MIC) against M. abscessus” value ([1]; 5 clinical MDR strains and 1 ATCC strain, CAAT) was “highly active”, the MIC ([1]; M. abscessus strain BK51402) was 1 µg/mL (≈ 0.219 µM) and the MIC ([1]; M. abscessus strain BK51403 (ATCC 19977)) was 4 µg/mL (≈ 0.875 µM). For the same compound, the MIC ([1]; M. abscessus strain BK51408) was 4 µg/mL (≈ 0.875 µM), the MIC ([1]; M. abscessus strain BK55096) was 2 µg/mL (≈ 0.438 µM) and the MIC ([1]; M. abscessus strain BK55691) was 1 µg/mL (≈ 0.219 µM). The MIC ([1]; M. abscessus strain BK58156) was 1 µg/mL (≈ 0.219 µM), the MIC50 [2] was 1 µg/mL (≈ 0.219 µM) and the MIC90 [2] was over 128 µg/mL. The “activity (MIC) against Mycobacterium species” value [3] was “highest activity”, the MIC50 [4] was 2 µg/mL (≈ 0.438 µM) and the MIC90 [4] was 16 µg/mL (≈ 3.5 µM). The MIC [4] was “AM3 (MIC = 0.5)”, the MBEC50 [5] was 2 µg/mL and the MBEC90 [5] was 16 µg/mL. The “MBEC Range” value [5] was 1 to 32 µg/mL, the MBEC50 [6] was 8 µg/mL and the MBEC90 [6] was 8 µg/mL. The “MBEC Range” value [6] was 4 to 16 µg/mL.
C[C@@H](O)[C@H]1C(=O)N2C(C(=O)O)=C(S[C@@H]3CN[C@H](C(=O)N(C)C)C3)[C@H](C)[C@H]12 [meropenem, reference compound] gave an MIC50 [2] of 16 µg/mL (≈ 41.7 µM), an MIC90 [2] of over 32 µg/mL and an MIC (alone) [7, 8] of 8 µg/mL. The MIC (dual agent) [7, 8] was 0.25 µg/mL, the MIC (alone) ([7]; P. aeruginosa (CFS 2045)) was 32 µg/mL and the MIC (dual agent) ([7]; P. aeruginosa (CFS 2045)) was 4 µg/mL. For the same compound, the MIC (alone) ([7]; P. aeruginosa (CFS 2061)) was 64 µg/mL, the MIC (dual agent) ([7]; P. aeruginosa (CFS 2061)) was 4 µg/mL and the “FICI of the antibiotic with GN370” value ([7]; P. aeruginosa ATCC 27853, checkerboard) was 0.375. For the same compound, the Antibiotic MIC (single agent) ([7]; P. aeruginosa strain AR-769) was 64 µg/mL, the “Antibiotic FIC” value ([7]; P. aeruginosa strain AR-769, in combination with GN370) was 0.125 and the “Antibiotic MIC (combo)” value ([7]; P. aeruginosa strain AR-769, in combination with GN370, in µg/mL) was 8. For the same compound, the MIC50 [4] was 4 µg/mL (≈ 10.4 µM), the MIC90 [4] was over 32 µg/mL and the MIC [4] was “Meropenem (MIC = 0.25)”.
